The source of these data is US4640916A, “1,4-benzothiazine derivatives, compositions containing them and method of use” (priority 1984, dated 1987).

The subject of assay [1] is contraction of the aorta strip caused by norepinephrine (NE). As to the kind of experiment: Vasodilating action: inhibition of contraction of rabbit aorta strip caused by norepinephrine (NE). Conditions: Oryctolagus cuniculus, compound 10^-5 M, NE 10^-6 M, 15 min pretreatment, read-out: Inhibitory percent against contraction, NE. Format: cell-based. As to the method:
(§1) A spiral strip of aorta of a rabbit (2-3 mm width, about 3 cm length) was allowed to equilibrate by hanging under 2 g force in a Krebs-Henseleit solution. The solution was saturated with a mixture gas of 97% O2 --3% CO2 which was warmed to 37° C. Inhibitory actions of compounds (10^-5 M) of this invention against contraction of the aorta strip caused by KCl (60 mM), norepinephrine (NE) (10^-6 M) or serotonin (5--HT) (10^-6 M), by treating the strip with a compound of this invention 15 minutes before the test, are shown in Table 1 as inhibitory percent.

Assay [2] relates to spontaneously hypertensive rats. As to the kind of experiment: Antihypertensive action in spontaneously hypertensive rats (tail-cuff). Format: in vivo. Conditions: 1 h after administration. As to the method: Male 12 to 13 weeks old spontaneously hypertensive rats with about 200 mm Hg of blood pressure were used in groups of 3 individuals. Mean arterial blood pressures of these animals were measured by the tail-cuff method, then the animals were orally given 3-60 mg/kg of each test compound of this invention as 2 ml of its suspension in gum arabic. Blood pressure measurements were made again one hour after administration of each test compound.

The test system of assay [3] is contraction of the aorta strip caused by KCl. As to the kind of experiment: Vasodilating action: inhibition of contraction of rabbit aorta strip caused by KCl. The format is cell-based. Conditions: Oryctolagus cuniculus, compound 10^-5 M, KCl 60 mM, 15 min pretreatment, read-out: Inhibitory percent against contraction, KCl. As to the method: as §1
Assay [4] relates to contraction of the aorta strip caused by serotonin (5--HT). The assay is described as follows: Vasodilating action: inhibition of contraction of rabbit aorta strip caused by serotonin (5-HT). The format is cell-based. Conditions: Oryctolagus cuniculus, compound 10^-5 M, 5-HT 10^-6 M, 15 min pretreatment, read-out: Inhibitory percent against contraction, 5-HT. As to the method: as §1

Structures can show the parent of a compound that is named as a salt. Where two headings read alike, the source gives them in different places.

Turning to `COc1ccccc1N1CCN(CCCC2Sc3cc(Cl)ccc3NC2=O)CC1` (stereo not drawn) [Example 9], the inhibition at 10 µM in assay [1] turned out to be 100%; in assay [3], 40%; in assay [4], 44%. Moreover, the “Antihypertensive effect (difference of blood pressure before and after medication)” value in assay [2] (60 mg/Kg oral) is recorded as 35 ΔmmHg.
With `O=C1Nc2cc3c(cc2SC1CCCN1CCN(c2ccc(F)cc2)CC1)OCO3` (stereo not drawn) [Example 45, 6-[3-[4-(4-fluorophenyl)-1-piperazinyl]propyl]-6H-1,3-dioxolo[4,5-g][1,4]benzothiazin-7(8H)-one.dihydrochloride], in assay [2] (30 mg/Kg oral), the “Antihypertensive effect (difference of blood pressure before and after medication)” value was 30 ΔmmHg.
As for `CCN1C(=O)C(CCN2CCN(c3ccccc3OC)CC2)Sc2ccccc21` (stereo not drawn) [Example 36, 4-ethyl-2-[2-[4-(2-methoxyphenyl)-1-piperazinyl]ethyl]-2H-1,4-benzothiazin-3(4H)-one], the figures for the inhibition at 10 µM in assay [1] (0.25 h), in assay [3] and in assay [4] were 100%, 15% and 100%, respectively.
With `Cc1cccc2c1NC(=O)C(CCCN1CCN(c3ccccc3)CC1)S2` (stereo not drawn) [Example 13], the inhibition at 10 µM worked out at 100% in assay [1], 40% in assay [3] and 92% in assay [4]. In addition, in assay [2] (60 mg/Kg oral), the “Antihypertensive effect (difference of blood pressure before and after medication)” value was 36 ΔmmHg.
Turning to `COc1cccc2c1NC(=O)C(CCCN1CCN(c3ccccc3)CC1)S2` (stereo not drawn) [Example 24], the inhibition at 10 µM in assay [1] is 100%; in assay [3], 20%; in assay [4], 66%.
With `Cc1ccc2c(c1C)NC(=O)C(CCCN1CCN(c3ccc(F)cc3)CC1)S2` (stereo not drawn) [Example 42], the “Antihypertensive effect (difference of blood pressure before and after medication)” value in assay [2] (30 mg/Kg oral) is 28 ΔmmHg.
Regarding `COc1ccccc1N1CCN(CCC2Sc3ccccc3N(C)C2=O)CC1` (stereo not drawn) [Example 32], the inhibition at 10 µM is 100% in assay [1] and 88% in assay [4]. In addition, the “Antihypertensive effect (difference of blood pressure before and after medication)” value in assay [2] (60 mg/Kg oral) is reported as 30 ΔmmHg.
For `Cc1ccc(N2CCN(CCCC3Sc4cccc(C)c4NC3=O)CC2)cc1` (stereo not drawn) [Example 7], the inhibition at 10 µM in assay [1] worked out at 60%; in assay [3], 77%.
For the molecule `COc1ccc2c(c1)SC(CCCN1CCN(c3ccccc3OC)CC1)C(=O)N2` (stereo not drawn) [Example 6], the inhibition at 10 µM stood at 100% in assay [1], 26% in assay [3] and 91% in assay [4]. In assay [2] (10 mg/Kg oral), the “Antihypertensive effect (difference of blood pressure before and after medication)” value is recorded as 64 ΔmmHg.
Turning to `O=C1Nc2ccccc2SC1CCCCN1CCN(c2ccc(F)cc2)CC1` (stereo not drawn) [Example 38, 2-[4-[4-(4-fluorophenyl)-1-piperazinyl]butyl]-2H-1,4-benzothiazin-3(4H)-one], the values for the inhibition at 10 µM in assay [1] (0.25 h) and in assay [3] were 100% and 30%, respectively. In addition, the “Antihypertensive effect (difference of blood pressure before and after medication)” value in assay [2] (30 mg/Kg oral) was 32 ΔmmHg.
With `O=C1Nc2ccccc2SC1CCN1CCN(c2ccccc2)CC1` (stereo not drawn) [Example 27], the inhibition at 10 µM was 100% in assay [1], 20% in assay [3] and 100% in assay [4].
As for `O=C1Nc2c(ccc3c2CCCC3)SC1CCCN1CCN(c2ccc(F)cc2)CC1` (stereo not drawn) [Example 47, 3-[3-[4-(4-fluorophenyl)-1-piperazinyl]propyl]-7,8,9,10-tetrahydro-1H-naphtho[2,1-b][1,4]thiazin-2(3H)-one.hydrochloride], the “Antihypertensive effect (difference of blood pressure before and after medication)” value in assay [2] (30 mg/Kg oral) is on record as 35 ΔmmHg.
With `COc1ccccc1N1CCN(CCCC2Sc3cccc(OC)c3NC2=O)CC1` (stereo not drawn) [Example 4], the inhibition at 10 µM in assay [1] is 100%; in assay [3], 18%; in assay [4] it was 12%.
Take `O=C1Nc2ccccc2SC1CCN1CCN(c2ccc(F)cc2)CC1` (stereo not drawn) [Example 26]: the inhibition at 10 µM in assay [1] (0.25 h) and in assay [3] was 60% throughout. Besides, the “Antihypertensive effect (difference of blood pressure before and after medication)” value in assay [2] (30 mg/Kg oral) is recorded as 26 ΔmmHg.
For `COc1ccccc1N1CCN(CCC2Sc3ccccc3NC2=O)CC1` (stereo not drawn) [Example 28], the results for the inhibition at 10 µM in assay [1], in assay [3] and in assay [4] were 100%, 15% and 100%, respectively. Besides, the “Antihypertensive effect (difference of blood pressure before and after medication)” value in assay [2] (30 mg/Kg oral) is on record as 29 ΔmmHg.
In the case of `Cc1ccccc1N1CCN(CCCC2Sc3cccc(C)c3NC2=O)CC1` (stereo not drawn) [Example 17], the inhibition at 10 µM in assay [1] worked out at 100%; in assay [3], 11%. Besides, the “Antihypertensive effect (difference of blood pressure before and after medication)” value in assay [2] (30 mg/Kg oral) is recorded as 26 ΔmmHg.
For the molecule `Cc1cccc(N2CCN(CCCC3Sc4cccc(C)c4NC3=O)CC2)c1` (stereo not drawn) [Example 18], the inhibition at 10 µM in assay [1] came out at 100%; in assay [3], 50%.
With `COc1ccccc1N1CCN(CCCC2Sc3cccc(C)c3NC2=O)CC1` (stereo not drawn) [Example 16], the inhibition at 10 µM in assay [1] worked out at 100%; in assay [3] it was 33%; in assay [4] it was 70%.
In the case of `COc1ccc2c(c1)SC(CCCN1CCN(c3ccccc3)CC1)C(=O)N2` (stereo not drawn) [Example 5], the results for the inhibition at 10 µM in assay [1], in assay [3] and in assay [4] were 100%, 10% and 100%, respectively. The “Antihypertensive effect (difference of blood pressure before and after medication)” value in assay [2] (10 mg/Kg oral) is listed as 49 ΔmmHg.
`Cc1cccc2c1NC(=O)C(CCCN1CCN(c3cccc(C(F)(F)F)c3)CC1)S2` (stereo not drawn) [Example 19]: the inhibition at 10 µM in assay [1] turned out to be 100%; in assay [3] it was 55%.
Regarding `COc1ccccc1N1CCN(CCCC2Sc3ccccc3NC2=O)CC1` (stereo not drawn) [Example 25, 2-[3-[4-(2-methoxyphenyl)-1-piperazinyl]propyl]-2H-1,4-benzothiazin-3(4H)-one], the figures for the inhibition at 10 µM in assay [1] (0.25 h), in assay [3] and in assay [4] were 100%, 10% and 84%, respectively. Further, the “Antihypertensive effect (difference of blood pressure before and after medication)” value in assay [2] (30 mg/Kg oral) is on record as 66 ΔmmHg.
For the molecule `COc1ccccc1N1CCN(CCCC2Sc3ccc(Cl)cc3NC2=O)CC1` (stereo not drawn) [Example 8], the inhibition at 10 µM came out at 100% in assay [1], 34% in assay [3] and 18% in assay [4].
As to `CN1C(=O)C(CCN2CCN(c3ccc(F)cc3)CC2)Sc2ccccc21` (stereo not drawn) [Example 30, 2-[2-[4(4-fluorophenyl)-1-piperazinyl]ethyl]-4-methyl-2H-1,4-benzothiazin-3(4H)-one], the values for the inhibition at 10 µM in assay [1] (0.25 h), in assay [3] and in assay [4] were 90%, 42% and 100%, respectively. In addition, in assay [2] (30 mg/Kg oral), the “Antihypertensive effect (difference of blood pressure before and after medication)” value is on record as 40 ΔmmHg.
On to `COc1ccc2c(c1)SC(CCN1CCN(c3ccccc3)CC1)C(=O)N2` (stereo not drawn) [Example 29], for which the values for the inhibition at 10 µM in assay [1], in assay [3] and in assay [4] were 96%, 15% and 73%, respectively. The “Antihypertensive effect (difference of blood pressure before and after medication)” value in assay [2] (10 mg/Kg oral) is given as 38 ΔmmHg.
Take `COc1ccccc1N1CCN(CCCC2Sc3cc(C)c(C)cc3NC2=O)CC1` (stereo not drawn) [Example 23]: the inhibition at 10 µM in assay [1] was found to be 100%; in assay [3], 40%. Further, the “Antihypertensive effect (difference of blood pressure before and after medication)” value in assay [2] (30 mg/Kg oral) is on record as 48 ΔmmHg.
On to `CN1C(=O)C(CCN2CCN(c3ccccc3)CC2)Sc2ccccc21` (stereo not drawn) [Example 31], for which the inhibition at 10 µM came out at 100% in assay [1], 40% in assay [3] and 62% in assay [4].
In the same order, the values of `COc1ccccc1N1CCN(CCCC2Sc3cc(C)ccc3NC2=O)CC1` (stereo not drawn) [Example 21] are 100%, 32% and 56%.
As for `O=C1Nc2ccccc2SC1CCCN1CCN(c2ccc(F)cc2)CC1` (stereo not drawn) [Example 3], the values for the inhibition at 10 µM in assay [1] and in assay [3] were 100% and 53%, respectively.
On to `O=C1Nc2cc(C(F)(F)F)ccc2SC1CCCN1CCN(c2ccc(F)cc2)CC1` (stereo not drawn) [Example 10], for which the inhibition at 10 µM in assay [1] is 100%; in assay [3], 45%. For the same molecule, the “Antihypertensive effect (difference of blood pressure before and after medication)” value in assay [2] (30 mg/Kg oral) is recorded as 33 ΔmmHg.
As for `CCc1cccc2c1NC(=O)C(CCCN1CCN(c3ccc(F)cc3)CC1)S2` (stereo not drawn) [Example 41], the “Antihypertensive effect (difference of blood pressure before and after medication)” value in assay [2] (30 mg/Kg oral) is given as 23 ΔmmHg.
On to `O=C1Nc2ccccc2SC1CCCN1CCN(c2ccccc2)CC1` (stereo not drawn) [Example 2], for which the values for the inhibition at 10 µM in assay [1], in assay [3] and in assay [4] were 100%, 70% and 97%, respectively. For the same molecule, the “Antihypertensive effect (difference of blood pressure before and after medication)” value in assay [2] (30 mg/Kg oral) is 43 ΔmmHg.
